Assays:
[1] = tested on: A549-ACE2 infected with SARS-CoV-2; assay: morphology score (similarity to uninfected cells); higher = more like uninfected cells; conditions: 24 h
HepG2 [2] = assay: drug sensitivity score (DSS) for viability; higher = more toxic; extreme values may be limits of the assay; conditions: 72 h
Vero E6 [3] = assay: as above; conditions: 72 h
Calu-3 [4] = assay: as above; conditions: 72 h
Caco-2 [5] = assay: as above; conditions: 72 h
U2OS [6] = assay: as above; conditions: 72 h
HepG2 [7] = assay: cell viability relative to DMSO; higher = less toxic; conditions: 72 h
Vero E6 [8] = assay: as above; conditions: 72 h
Calu-3 [9] = assay: as above; conditions: 72 h
Caco-2 [10] = assay: as above; conditions: 72 h
U2OS [11] = assay: as above; conditions: 72 h
A549-ACE2 [12] = assay: drug-induced phospholipidosis relative to tamoxifen; higher = more phospholipidosis
[13] = tested on: A549-ACE2 infected with SARS-CoV-2; assay: SARS-CoV-2 infection rate relative to DMSO; higher = more infection; conditions: 24 h
[14] = tested on: A549-ACE2 infected with SARS-CoV-2; assay: cell count relative to DMSO; higher = less toxic; conditions: 24 h
HepG2 [15] = assay: relative viability EC50 (midpoint between 100% and the lowest measured viability); higher = less toxic; conditions: 72 h
Vero E6 [16] = assay: as above; conditions: 72 h
Caco-2 [17] = assay: as above; conditions: 72 h
U2OS [18] = assay: as above; conditions: 72 h
Calu-3 [19] = assay: as above; conditions: 72 h
A549-ACE2 [20] = assay: phospholipidosis EC50; higher = less potent phospholipidosis inducer

COc1cc(/C=C2\CCC/C(=C\c3ccc(O)c(OC)c3)C2=O)ccc1O [cyclovalone]
Conditions	SARS-CoV-2 infection rate, [13] [%]	cell count, [14] [%]	cell viability, Caco-2 [10] [%]	cell viability, Calu-3 [9] [%]	cell viability, HepG2 [7] [%]	cell viability, U2OS [11] [%]	cell viability, Vero E6 [8] [%]	morphology score, [1]
1 nM	–	–	93	93	88.9	96.1	103	–
10 nM	–	–	102	100	95.2	101	91.9	–
100 nM	–	–	100	105	99	97	99.1	–
0.3 µM	96	99	–	–	–	–	–	0.08
1000 nM	–	–	96.1	98.9	92.8	-0.3	84.1	–
3 µM	103	97	–	–	–	–	–	0.06
10 µM	98	80	–	–	–	–	–	0.05
10000 nM	–	–	101	59.3	90.4	22.4	108	–
30 µM	21	31	–	–	–	–	–	0.46

Conditions	drug sensitivity score	relative viability EC50 [µM]
Caco-2 [5]	0	–
Caco-2 [17]	–	> 10
Calu-3 [4]	2.2	–
HepG2 [2]	0	–
HepG2 [15]	–	> 10
U2OS [6]	18.4	–
U2OS [18]	–	0.293
Vero E6 [3]	0	–
Vero E6 [16]	–	> 10

drug-induced phospholipidosis [%], A549-ACE2 [12]
Conditions	0.3 µM	0.833333 µM	3.33333 µM	6.66667 µM	10 µM	30 µM
24 h	3.68	3.84	17.9	21.4	23.9	23.4
48 h	2.15	1.38	12.4	–	–	–
72 h	2.61	-0.476	7.23	–	–	–

COC(=O)[C@]12CCC(C)(C)C[C@H]1[C@H]1C(=O)C=C3[C@@]4(C)C=C(C#N)C(=O)C(C)(C)[C@@H]4CC[C@@]3(C)[C@]1(C)CC2 [Bardoxolone Methyl]
Conditions	SARS-CoV-2 infection rate, [13] [%]	cell count, [14] [%]	cell viability, Caco-2 [10] [%]	cell viability, Calu-3 [9] [%]	cell viability, HepG2 [7] [%]	cell viability, U2OS [11] [%]	cell viability, Vero E6 [8] [%]	morphology score, [1]
1 nM	–	–	86.4	107	94.7	101	98.6	–
10 nM	–	–	88.7	124	107	96.7	107	–
100 nM	–	–	85.9	117	87.4	96.6	92.3	–
0.3 µM	98	97	–	–	–	–	–	0.09
1000 nM	–	–	14.1	12.8	4	0.1	5.5	–
3 µM	61	5	–	–	–	–	–	-0.03
10000 nM	–	–	-0.2	0	-0.2	-0.3	-0.3	–

Conditions	drug sensitivity score	relative viability EC50 [µM]
Caco-2 [5]	17.5	–
Caco-2 [17]	–	0.313
Calu-3 [4]	15.4	–
Calu-3 [19]	–	0.503
HepG2 [2]	19.4	–
HepG2 [15]	–	0.239
U2OS [6]	18.4	–
U2OS [18]	–	0.292
Vero E6 [3]	18.3	–
Vero E6 [16]	–	0.293

A549-ACE2 [12], 0.3 µM
Conditions	drug-induced phospholipidosis [%]
24 h	0.65
48 h	2.45
72 h	7

C[C@@H]1CN(CC(=O)Nc2ccc3c(c2)Cc2cccc(-c4cc(=O)cc(N5CCOCC5)o4)c2S3)C[C@H](C)O1
Conditions	SARS-CoV-2 infection rate [%]	cell count [%]	cell viability [%]	morphology score	phospholipidosis EC50 [µM]
A549-ACE2 [20], 72 h	–	–	–	–	20
Caco-2 [10], 1 nM	–	–	97.2	–	–
Caco-2 [10], 10 nM	–	–	103	–	–
Caco-2 [10], 100 nM	–	–	101	–	–
Caco-2 [10], 1000 nM	–	–	103	–	–
Caco-2 [10], 10000 nM	–	–	47.3	–	–
Calu-3 [9], 1 nM	–	–	99.4	–	–
Calu-3 [9], 10 nM	–	–	104	–	–
Calu-3 [9], 100 nM	–	–	99.4	–	–
Calu-3 [9], 1000 nM	–	–	105	–	–
Calu-3 [9], 10000 nM	–	–	99.3	–	–
HepG2 [7], 1 nM	–	–	105	–	–
HepG2 [7], 10 nM	–	–	101	–	–
HepG2 [7], 100 nM	–	–	97.8	–	–
HepG2 [7], 1000 nM	–	–	96	–	–
HepG2 [7], 10000 nM	–	–	54.3	–	–
U2OS [11], 1 nM	–	–	102	–	–
U2OS [11], 10 nM	–	–	104	–	–
U2OS [11], 100 nM	–	–	95.7	–	–
U2OS [11], 1000 nM	–	–	98.7	–	–
U2OS [11], 10000 nM	–	–	89.6	–	–
Vero E6 [8], 1 nM	–	–	103	–	–
Vero E6 [8], 10 nM	–	–	99.2	–	–
Vero E6 [8], 100 nM	–	–	103	–	–
Vero E6 [8], 1000 nM	–	–	104	–	–
Vero E6 [8], 10000 nM	–	–	80.9	–	–
[1], 0.3 µM	–	–	–	0.15	–
[1], 3 µM	–	–	–	0.09	–
[1], 10 µM	–	–	–	0.57	–
[1], 30 µM	–	–	–	0.45	–
[13], 0.3 µM	108	–	–	–	–
[13], 3 µM	98	–	–	–	–
[13], 10 µM	62	–	–	–	–
[13], 30 µM	68	–	–	–	–
[14], 0.3 µM	–	115	–	–	–
[14], 3 µM	–	103	–	–	–
[14], 10 µM	–	113	–	–	–
[14], 30 µM	–	104	–	–	–

Conditions	drug sensitivity score	relative viability EC50 [µM]
Caco-2 [5]	2.5	–
Caco-2 [17]	–	3.48
Calu-3 [4]	0	–
Calu-3 [19]	–	> 10
HepG2 [2]	3	–
U2OS [6]	0	–
U2OS [18]	–	> 10
Vero E6 [3]	0.4	–
Vero E6 [16]	–	> 10

drug-induced phospholipidosis [%], A549-ACE2 [12]
Conditions	0.3 µM	0.833333 µM	3.33333 µM	6.66667 µM	10 µM	30 µM
24 h	-1.06	-2.12	-2.36	1.18	7.55	66.8
48 h	-1.36	-2.9	-1.74	0	6.05	52.4
72 h	-1.2	-4.15	-2.75	0.476	6.88	56.1

Cc1cc(CN)cc(C)c1NC(=O)c1ccc(-c2cc(Cl)ccc2Cl)o1
Conditions	SARS-CoV-2 infection rate [%]	cell count [%]	cell viability [%]	morphology score	phospholipidosis EC50 [µM]
A549-ACE2 [20], 24 h	–	–	–	–	2.39
A549-ACE2 [20], 48 h	–	–	–	–	3.42
A549-ACE2 [20], 72 h	–	–	–	–	4.24
Caco-2 [10], 1 nM	–	–	105	–	–
Caco-2 [10], 10 nM	–	–	101	–	–
Caco-2 [10], 100 nM	–	–	98.1	–	–
Caco-2 [10], 1000 nM	–	–	102	–	–
Caco-2 [10], 10000 nM	–	–	79.1	–	–
Calu-3 [9], 1 nM	–	–	104	–	–
Calu-3 [9], 10 nM	–	–	101	–	–
Calu-3 [9], 100 nM	–	–	104	–	–
Calu-3 [9], 1000 nM	–	–	102	–	–
Calu-3 [9], 10000 nM	–	–	60.1	–	–
HepG2 [7], 1 nM	–	–	106	–	–
HepG2 [7], 10 nM	–	–	103	–	–
HepG2 [7], 100 nM	–	–	97.8	–	–
HepG2 [7], 1000 nM	–	–	107	–	–
HepG2 [7], 10000 nM	–	–	66.7	–	–
U2OS [11], 1 nM	–	–	98	–	–
U2OS [11], 10 nM	–	–	102	–	–
U2OS [11], 100 nM	–	–	98.5	–	–
U2OS [11], 1000 nM	–	–	101	–	–
U2OS [11], 10000 nM	–	–	83.1	–	–
Vero E6 [8], 1 nM	–	–	103	–	–
Vero E6 [8], 10 nM	–	–	97.5	–	–
Vero E6 [8], 100 nM	–	–	105	–	–
Vero E6 [8], 1000 nM	–	–	96.6	–	–
Vero E6 [8], 10000 nM	–	–	96.8	–	–
[1], 0.3 µM	–	–	–	0.02	–
[1], 3 µM	–	–	–	0.84	–
[1], 10 µM	–	–	–	0.68	–
[1], 30 µM	–	–	–	-0.13	–
[13], 0.3 µM	101	–	–	–	–
[13], 3 µM	34	–	–	–	–
[13], 10 µM	10	–	–	–	–
[13], 30 µM	43	–	–	–	–
[14], 0.3 µM	–	101	–	–	–
[14], 3 µM	–	120	–	–	–
[14], 10 µM	–	120	–	–	–
[14], 30 µM	–	1	–	–	–

Conditions	drug sensitivity score	relative viability EC50 [µM]
Caco-2 [5]	0.6	–
Caco-2 [17]	–	> 10
Calu-3 [4]	1.8	–
HepG2 [2]	1.2	–
U2OS [6]	0.3	–
U2OS [18]	–	> 10
Vero E6 [3]	0	–
Vero E6 [16]	–	> 10

drug-induced phospholipidosis [%], A549-ACE2 [12]
Conditions	0.3 µM	0.833333 µM	3.33333 µM	6.66667 µM	10 µM
24 h	2.63	5.94	68	88.7	90.2
48 h	3.74	4.56	48.1	81.5	90.1
72 h	1.91	1.3	32.6	66.3	78.5

COc1cccc([C@@H](C)NCCCc2ccccc2Cl)c1 [tecalcet]
Conditions	SARS-CoV-2 infection rate [%]	cell count [%]	cell viability [%]	morphology score	phospholipidosis EC50 [µM]
A549-ACE2 [20], 24 h	–	–	–	–	6.31
A549-ACE2 [20], 48 h	–	–	–	–	8.26
A549-ACE2 [20], 72 h	–	–	–	–	11.4
Caco-2 [10], 1 nM	–	–	101	–	–
Caco-2 [10], 10 nM	–	–	94.8	–	–
Caco-2 [10], 100 nM	–	–	94.5	–	–
Caco-2 [10], 1000 nM	–	–	92.4	–	–
Caco-2 [10], 10000 nM	–	–	86.3	–	–
HepG2 [7], 1 nM	–	–	92.9	–	–
HepG2 [7], 10 nM	–	–	101	–	–
HepG2 [7], 100 nM	–	–	101	–	–
HepG2 [7], 1000 nM	–	–	108	–	–
HepG2 [7], 10000 nM	–	–	83.1	–	–
U2OS [11], 1 nM	–	–	101	–	–
U2OS [11], 10 nM	–	–	97.6	–	–
U2OS [11], 100 nM	–	–	101	–	–
U2OS [11], 1000 nM	–	–	102	–	–
U2OS [11], 10000 nM	–	–	90.2	–	–
Vero E6 [8], 1 nM	–	–	108	–	–
Vero E6 [8], 10 nM	–	–	103	–	–
Vero E6 [8], 100 nM	–	–	101	–	–
Vero E6 [8], 1000 nM	–	–	101	–	–
Vero E6 [8], 10000 nM	–	–	96.2	–	–
[1], 0.3 µM	–	–	–	-0.35	–
[1], 3 µM	–	–	–	0.47	–
[1], 10 µM	–	–	–	0.9	–
[1], 30 µM	–	–	–	0.78	–
[13], 0.3 µM	111	–	–	–	–
[13], 3 µM	84	–	–	–	–
[13], 10 µM	52	–	–	–	–
[13], 30 µM	10	–	–	–	–
[14], 0.3 µM	–	97	–	–	–
[14], 3 µM	–	105	–	–	–
[14], 10 µM	–	116	–	–	–
[14], 30 µM	–	112	–	–	–

Conditions	drug sensitivity score	relative viability EC50 [µM]
Caco-2 [5]	0.2	–
Caco-2 [17]	–	> 10
HepG2 [2]	0.2	–
HepG2 [15]	–	> 10
U2OS [6]	0	–
U2OS [18]	–	> 10
Vero E6 [3]	0	–
Vero E6 [16]	–	> 10

drug-induced phospholipidosis [%], A549-ACE2 [12]
Conditions	0.3 µM	0.833333 µM	3.33333 µM	6.66667 µM	10 µM	30 µM
24 h	3.6	1.52	14.2	49.8	74.2	90
48 h	5	4.11	18.9	41.5	67.1	98.2
72 h	7.69	2.06	15.2	34.4	61.6	117

From the supplement of paper PMC13380429
